Test results: article PMC7599001, “The SNAP-tag technology revised: an effective chemo-enzymatic approach by using a universal azide-based substrate” (Journal of Enzyme Inhibition and Medicinal Chemistry, 2020)
Where two headings read alike, the source gives them in different places.

Tests used:
SNAP-tag® [1] = target: T1, SNAP-tag® (Homo sapiens, UniProt P16455, A127T/C150S/C62A/G131K/G132T/K125A/M134L/N157G/R128A/R135S/S159E); parameters: method as in PMID 18291317, PMID 26499124; conditions: 25 °C; obtained by using a BG-fluorescein substrate (BG-FL) very similar to SVG; cited from earlier work
T1 sequence (P16455 1-182 C62A/K125A/A127T/R128A/G131K/G132T/M134L/R135S/C150S/N157G/S159E): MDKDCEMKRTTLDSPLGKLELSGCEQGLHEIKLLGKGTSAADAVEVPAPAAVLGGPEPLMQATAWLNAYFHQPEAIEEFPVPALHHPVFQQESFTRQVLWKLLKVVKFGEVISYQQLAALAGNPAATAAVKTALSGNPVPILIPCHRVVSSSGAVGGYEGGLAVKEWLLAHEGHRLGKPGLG

SsOGT-H^5 [2] = target: T2, SsOGT-H^5 (Saccharolobus solfataricus, UniProt Q97VW7, G105K/K110E/M106T/R102A/S100A/S132E); conditions: cited from earlier work
T2 construct: His6-tag; made in house; host or cells: E. coli ABLE C

SsOGT-H^5 [3] = target: T2, SsOGT-H^5; assay: AGTs' substrate assay by competitive inhibition method with SVG (gel-imaging); format: biochemical
Experimental: Competitive inhibition assay was performed as described[23]^,[38]. Briefly, by using a fixed concentration of the fluorescent SVG (5 µM) and enzymes (5 µM), an increasing amount of guanine-derivatives (0–2 mM) was added to the mixtures. […] Subsequently, fluorescent bands were measured by gel-imaging on a VersaDoc 4000™ system (Bio-Rad), by applying a blue LED/530 bandpass filter. Obtained data were finally plotted by Equation (1), (1) RF=100%/1+([I]/IC50)^[S] where RF is the obtained Relative Fluorescence, [I] and [S] are the concentration of the inhibitor and the substrate, respectively, and finally the IC50 is the concentration needed to reduce by 50% the fluorescence intensity of the protein band.
(§1) We evaluated the activity of SNAP-tag® and H^5 enzymes on BGN3 and BGSN3 by the afore-mentioned IC50 method (Figure S5(A,B)) and other O^6-guanine-derivatives (Table 1).
(§2) Because most of them are non-fluorescent compounds, we performed an AGTs’ competitive inhibition assay by using the fluorescein-derivative SNAP-Vista® Green as substrate (SVG), as previously described[22–24]^,[45]. Briefly, the reaction of an AGT with SVG led to a fluoresceinated protein, which can be visualised as a fluorescent band in gel-imaging analysis after SDS-PAGE. The presence of increasing amounts of a non-fluorescent competitor in the reaction causes a decrease of the fluorescent signals, which can be measured and plotted for the IC50 values determination[23]^,[46].

SNAP-tag® [4] = target: T1, SNAP-tag®; assay: as above; format: biochemical; conditions: for IC50: SVG 5 µM, enzyme 5 µM, 30 min at 25 °C
Experimental: Competitive inhibition assay was performed as described[23]^,[38]. Briefly, by using a fixed concentration of the fluorescent SVG (5 µM) and enzymes (5 µM), an increasing amount of guanine-derivatives (0–2 mM) was added to the mixtures. The reactions were incubated for 30 min at 25 °C and 50 °C for SNAP-tag® and H^5 respectively, and loaded on SDS-PAGE. Subsequently, fluorescent bands were measured by gel-imaging on a VersaDoc 4000™ system (Bio-Rad), by applying a blue LED/530 bandpass filter. Obtained data were finally plotted by Equation (1), (1) RF=100%/1+([I]/IC50)^[S] where RF is the obtained Relative Fluorescence, [I] and [S] are the concentration of the inhibitor and the substrate, respectively, and finally the IC50 is the concentration needed to reduce by 50% the fluorescence intensity of the protein band.
as §1, §2

[5] = system: HEK293T cells transfected with SNAP-tag® plasmid; assay: Permeability of eukaryotic cells to BGSN3 (lysates then incubated with SVG, gel-imaging); format: cell-based
Experimental: HEK293T cells were maintained at 37 °C with 5% CO2 in Dulbecco’s Modified Essential Medium (Invitrogen, Carlsbad, CA) supplemented with 10% Foetal Bovine Serum (FBS) (Invitrogen) and 100 U/ml Penicillin/Streptomycin (Roche, Switzerland). HEK293T cells were transfected with SNAP-tag® plasmid by using Lipofectamine 2000 (Invitrogen) following manufacturer’s protocol. The treatment with BGSN3 were performed, at the concentration and time indicated for each experiment. Twenty-four hours after transfection, we treated cells with BGSN3 for 2 h at different concentrations ranging (from 1 to 25 µM), directly dissolving the compound in complete culture medium. Then cells were harvested, washed with PBS 1× buffer and lysed with 50 mM Tris-HCl pH 7.4, 150 mM NaCl, 0.5 mM EDTA, 0.1% Triton X-100 supplemented with complete protease (Roche, Switzerland) and phosphatase (SERVA Electrophoresis, Germany) inhibitors. Afterwards, transfected cells were treated with a fixed concentration of BGSN3 (10 µM) at different time points (from 30 to 120 min). Again, HEK293T cells were washed and lysed as described before. […] Subsequently, proteins were loaded on SDS-PAGE and analysed by gel-imaging on a VersaDoc 4000™ system (Bio-Rad), by applying a blue LED/530 bandpass filter (Figure 6).

[6] = SVG 5 µM, enzyme 5 µM, 30 min at 50 °C, read-out: IC50

T2 sequence (Q97VW7 whole entry S100A/R102A/G105K/M106T/K110E/S132E): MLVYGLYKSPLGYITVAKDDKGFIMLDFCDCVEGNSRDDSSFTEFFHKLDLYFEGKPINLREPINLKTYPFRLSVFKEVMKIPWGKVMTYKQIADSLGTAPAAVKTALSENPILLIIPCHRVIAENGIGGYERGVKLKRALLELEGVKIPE

## SNAP-Vista^® Green [SVG]
SNAP-tag® [1]
  k (second order rate constant of the enzymatic reaction): 2.8 × 10^4 b s^−1 M^−1
SsOGT-H^5 [2]
  k (second order rate constant of the enzymatic reaction): 16000 M⁻¹ s⁻¹

## SNAP Cell^® Block [SCB]
SsOGT-H^5 [3]; [6]
  IC50: 4.4 ± 0.8 µM
SNAP-tag® [4]
  IC50: 2.1 ± 0.5 µM

## BG-PEG-NH2 [BGPA]
SsOGT-H^5 [3]; [6]
  IC50: 14.3 ± 1.9 µM
SNAP-tag® [4]
  IC50: 86 ± 6.7 µM

## Nc1nc(OCc2ccccc2)c2nc[nH]c2n1 [BG, O^6-benzyl-guanine]
SsOGT-H^5 [3]; [6]
  IC50: 10.1 ± 1 µM

## [N-]=[N+]=NCc1ccc(COc2nc(N)nc3nc[nH]c23)cc1 [BGN3, O^6-BG-N3]
SsOGT-H^5 [3]; [6]
  IC50: 23.5 ± 1 µM
SNAP-tag® [4]
  IC50: 15.6 ± 0.3 µM

## [N-]=[N+]=NCCCC(=O)NCc1ccc(COc2nc(N)nc3[nH]cnc23)cc1 [BGSN3, N-(4-(((2-amino-9H-purin-6-yl)oxy)methyl)benzyl)-4-azidobutanamide]
SsOGT-H^5 [3]
  IC50: 10 ± 0.7 µM
[5]; 2 h treatment in culture medium
  concentration for internalisation (absence of SVG signal): < 5 µM
[5]; BGSN3 10 µM in culture medium
  time of internalisation: ca. 30 min
SNAP-tag® [4]
  IC50: 17.8 ± 1.1 µM

## SNAP Cell^® 430 [SC430]
SsOGT-H^5 [3]; competitive inhibition assay
  competition with SVG: completely lost the competition with SVG
SNAP-tag® [4]; competitive inhibition assay
  competition with SVG: completely lost the competition with SVG

## methyl-guanine-PEG-NH2 [MGPA]
SsOGT-H^5 [3]; competitive assay for H^5 performed at 65 °C, read-out: IC50
  IC50: 269 ± 19.1 µM
